24 compounds from ChEMBL document CHEMBL1201862, “PubChem BioAssay data set” (2004) can be followed below.

Test systems include RXF 631; SNB-78; XF498; DMS-114; DLD-1; LXFL 529; M19-MEL; HOP-18; KM-20L2.
Holding throughout (experiment): growth of human tumour cells (NCI), 48 h

SMILES strings stand for the structures. Where a name gives a salt, the structure may show the parent alone.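 Method: 48-hour compound exposure of cells in 96-well plates, five concentrations, linear interpolation of endpoints. At the GI50, growth is halved.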 Active and inactive are the calls of the source. Cut-off read from the data, not from the text of the source: active = GI50 up to about 1.1 µM and inactive = higher.

Take `Fc1cccc(Cl)c1C1SCc2nc3ccccc3n21` (stereo unspecified): the GI50 in the assay on RXF 631 was 25.3 µM (inactive); in the assay on SNB-78, 22.2 µM (inactive); in the assay with XF498, 27.7 µM (inactive); in the assay with DMS-114 it was 20.7 µM (inactive); in the assay on DLD-1 it was 28.8 µM (inactive); in the assay with LXFL 529, 35.9 µM (inactive). The GI50 with M19-MEL is 26.1 µM (inactive); in the assay with HOP-18 it was 29.7 µM (inactive); with KM-20L2 it was 17.2 µM (inactive).

As for `CCCCN(CCCC)C(=O)C(=O)C(C(=O)c1ccc(OC)cc1)c1ccc(OC)cc1` (stereo unspecified), the GI50 was > 100 µM (inactive) with RXF 631; > 100 µM (inactive) with SNB-78; 78.7 µM (inactive) with DMS-114; > 100 µM (inactive) with DLD-1; > 100 µM (inactive) in the assay with LXFL 529; > 100 µM (inactive) with HOP-18. The GI50 with KM-20L2 is > 100 µM (inactive).

As to `C(=N/NC1=NCCN1)/c1c2ccccc2c(/C=N\NC2=NCCN2)c2ccccc12`, the GI50 in the assay on SNB-78 was 0.171 µM (active); in the assay with XF498, 0.0828 µM (active); in the assay with DLD-1, 2.83 µM (inactive); in the assay with M19-MEL, 0.0757 µM (active); with HOP-18 it was 0.168 µM (active); in the assay with KM-20L2 it was 0.265 µM (active).

Consider `O=C1CCCC/C1=C\c1ccc(Cl)c(Cl)c1`, for which the GI50 was 19.1 µM (inactive) with SNB-78; 18.7 µM (inactive) in the assay on DMS-114; 23.2 µM (inactive) in the assay with DLD-1; 17.1 µM (inactive) in the assay with LXFL 529; 20.7 µM (inactive) with M19-MEL; 18.8 µM (inactive) in the assay on HOP-18. In the assay with KM-20L2, the GI50 was 20.7 µM (inactive).

On to `COc1ccc(Sc2ccccc2[N+](=O)[O-])cc1`, for which the GI50 was 9.75 µM (inactive) with RXF 631; 26.4 µM (inactive) in the assay with SNB-78; 24.8 µM (inactive) in the assay with DLD-1; 27.5 µM (inactive) in the assay on LXFL 529; 7.23 µM (inactive) in the assay with M19-MEL; > 100 µM (inactive) in the assay on HOP-18. Also, the GI50 in the assay with KM-20L2 was > 10 µM (inactive).

For `O=C(c1ccccc1)c1c(CC(O)c2ccncc2)n(C(=O)c2ccccc2)c2ccccc12` (stereo unspecified), the GI50 was 16.9 µM (inactive) in the assay on DMS-114; 26.2 µM (inactive) in the assay with DLD-1; 18.8 µM (inactive) in the assay with LXFL 529; 17.9 µM (inactive) with M19-MEL; 17.7 µM (inactive) with KM-20L2.

For `COc1cc(OC)c2c(O)cc(CC(C)O)cc2c1` (stereo unspecified), the GI50 in the assay with RXF 631, in the assay on SNB-78, in the assay with XF498, in the assay with DMS-114, in the assay with DLD-1 and in the assay on LXFL 529 was > 100 µM (inactive) in each case. The GI50 with M19-MEL, with HOP-18 and in the assay with KM-20L2 was > 100 µM (inactive) each time.

In the case of `NC(CCCNc1ccc(O)cc1)C(=O)O` (stereo unspecified), the GI50 was 54.3 µM (inactive) with RXF 631; > 83.6 µM (inactive) with SNB-78; 22.5 µM (inactive) with XF498; 24.9 µM (inactive) in the assay on DMS-114; 20.4 µM (inactive) in the assay with DLD-1; 18.3 µM (inactive) in the assay on LXFL 529. Also, the GI50 was 18.2 µM (inactive) with M19-MEL, > 76.4 µM (inactive) with HOP-18 and > 100 µM (inactive) in the assay with KM-20L2.

Consider `NC(=O)c1ncn(Cc2ccccc2)c1CNC(N)=S`, for which the GI50 in the assay on RXF 631, in the assay on SNB-78, in the assay with XF498, in the assay on DMS-114, with DLD-1 and with LXFL 529 was > 100 µM (inactive) throughout. Moreover, the GI50 with M19-MEL and with HOP-18 was > 100 µM (inactive) each time.

Turning to `CN(C)CC1CCCCCCCCCC(CN(C)C)C1=O` (stereo unspecified), the GI50 with RXF 631, in the assay with SNB-78, in the assay on XF498, in the assay with DMS-114, with DLD-1 and in the assay on LXFL 529 was > 100 µM (inactive) throughout. Besides, the GI50 in the assay on M19-MEL is 63.1 µM (inactive); in the assay with HOP-18, > 100 µM (inactive); with KM-20L2, 61.4 µM (inactive).

With `CCC1=CC2CN3CCc4c([nH]c5ccccc45)C(C(=O)OC)(C2)C13` (stereo unspecified), the GI50 is 64.7 µM (inactive) with SNB-78; 35.7 µM (inactive) in the assay on XF498; 39.4 µM (inactive) in the assay with DMS-114; 45.9 µM (inactive) in the assay with DLD-1; 42.6 µM (inactive) in the assay with M19-MEL; 47.9 µM (inactive) in the assay on HOP-18. The GI50 in the assay on KM-20L2 was 1.22 µM (inactive).

As for `O=C(CCC(=O)Nc1ccc(Cl)c(Cl)c1)CC(=O)c1ccc2ccccc2c1`, the GI50 was > 100 µM (inactive) in the assay with RXF 631; > 100 µM (inactive) in the assay on SNB-78; 86.5 µM (inactive) with DMS-114; > 100 µM (inactive) in the assay with DLD-1; 42.7 µM (inactive) with LXFL 529; > 100 µM (inactive) with M19-MEL. For the same compound, the GI50 with HOP-18 is > 100 µM (inactive); in the assay with KM-20L2, 25.9 µM (inactive).

On to `N=C(NC(=N)Nc1ccc(S(=O)(=O)Nc2cnc3ccccc3n2)cc1)Nc1ccc(Br)cc1`, for which the GI50 with RXF 631, with SNB-78, in the assay with XF498, in the assay on DMS-114, in the assay with DLD-1 and in the assay with LXFL 529 was > 100 µM (inactive) each time. Moreover, the GI50 with M19-MEL, with HOP-18 and with KM-20L2 was > 100 µM (inactive) throughout.

As to `COc1ccc(C(c2ccccc2)(c2ccc(OC)cc2)N2C(=O)NC3C(CCCCC(=O)NCCCCCCOP(OCCC#N)N(C(C)C)C(C)C)SCC32)cc1` (stereo unspecified), the GI50 in the assay with RXF 631 was 4.06 µM (inactive); in the assay on SNB-78, 16.2 µM (inactive); in the assay with XF498 it was 15.8 µM (inactive); in the assay on DMS-114, 17.7 µM (inactive); in the assay on DLD-1, 14.8 µM (inactive); with LXFL 529 it was 11.9 µM (inactive). Moreover, the GI50 in the assay on M19-MEL was 16.8 µM (inactive); in the assay with HOP-18 it was 11.8 µM (inactive); with KM-20L2 it was 17.1 µM (inactive).

`Cn1cc2ccccc2c1-c1nc(F)nc(Nc2ccc(N)cc2)n1`: the GI50 is 18.3 µM (inactive) in the assay on RXF 631; 15.2 µM (inactive) in the assay on SNB-78; 12.5 µM (inactive) in the assay with XF498; 17.7 µM (inactive) in the assay with DMS-114; 13 µM (inactive) in the assay with DLD-1; 16 µM (inactive) in the assay with LXFL 529. For the same compound, the results for the GI50 in the assay with M19-MEL and in the assay on KM-20L2 were 11.9 µM (inactive) and 18 µM (inactive), respectively.

Consider `CC(C)(C)C(=O)OCC1CCC(n2cnc3c(=O)[nH]c(N)nc32)O1` (stereo unspecified), for which the GI50 in the assay on SNB-78, with XF498, with DMS-114, in the assay on M19-MEL, with HOP-18 and in the assay on KM-20L2 was > 100 µM (inactive) in each case.

For `NC1=NC(c2ccccc2)CC(c2cc(Cl)cc(Br)c2O)=N1` (stereo unspecified), the GI50 was 17.5 µM (inactive) in the assay on RXF 631; 17.2 µM (inactive) with SNB-78; 13.7 µM (inactive) in the assay on XF498; 8.69 µM (inactive) in the assay with DMS-114; 12 µM (inactive) in the assay on DLD-1; 16.7 µM (inactive) with LXFL 529. Further, the figures for the GI50 with M19-MEL, in the assay with HOP-18 and in the assay on KM-20L2 were 12.8 µM (inactive), 17.7 µM (inactive) and 15.7 µM (inactive), respectively.

On to `O=C(CC(=O)N1N=C(c2ccccc2)C(/N=N/c2ccccc2Cl)C1=O)Nc1ccccc1Cl` (stereo unspecified), for which the GI50 is 48.5 µM (inactive) in the assay with RXF 631; 40.9 µM (inactive) in the assay on SNB-78; 20.7 µM (inactive) in the assay on XF498; 54.1 µM (inactive) in the assay with DMS-114; 23 µM (inactive) in the assay on DLD-1; 26.2 µM (inactive) in the assay on LXFL 529. The GI50 was 32.2 µM (inactive) in the assay with M19-MEL and 46.3 µM (inactive) with KM-20L2.

Take `C[C@]12CCc3nonc3C1CC[C@@H]1C2CC[C@]2(C)C(=O)CCC12` (stereo partly specified): the GI50 was 57.8 µM (inactive) in the assay on RXF 631; 59.6 µM (inactive) with SNB-78; 17.5 µM (inactive) in the assay with XF498; 22.4 µM (inactive) with DMS-114; 50 µM (inactive) in the assay on DLD-1; 35.9 µM (inactive) in the assay with LXFL 529. Further, the GI50 in the assay on M19-MEL was 25.8 µM (inactive); in the assay with HOP-18, > 100 µM (inactive); in the assay on KM-20L2, 26.5 µM (inactive).

With `COc1cccc2c1C(=O)c1c(O)c3c(c(O)c1C2=O)C[C@](O)(C(=O)CO)CC3OC1CC(N)C(OC2CCCCO2)C(C)O1` (stereo partly specified), the GI50 with SNB-78 is 1.24 µM (inactive); in the assay with XF498 it was 0.0678 µM (active); in the assay with DLD-1 it was 0.675 µM (active); in the assay on HOP-18, 0.383 µM (active); in the assay on KM-20L2, 0.624 µM (active).

Regarding `COc1cccc2c1C(=O)c1c(O)c3c(c(O)c1C2=O)C[C@@](O)(C(=O)CO)CC3OC1CC(NCCCC(OC(C)=O)OC(C)=O)C(O)C(C)O1` (stereo partly specified), the GI50 was < 0.0001 µM (active) with RXF 631; 0.00224 µM (active) with SNB-78; 0.00183 µM (active) in the assay with XF498; 0.00703 µM (active) in the assay on DMS-114; 0.0023 µM (active) in the assay on DLD-1; 0.00262 µM (active) in the assay with LXFL 529. Also, the results for the GI50 in the assay with M19-MEL, in the assay with HOP-18 and with KM-20L2 were 0.00261 µM (active), 0.00413 µM (active) and 0.000912 µM (active), respectively.

For `Nc1ncnc2c(C3OC(CO)C(O)C3O)n[nH]c12` (stereo unspecified), the GI50 in the assay on SNB-78 was 0.53 µM (active); in the assay on XF498, 0.158 µM (active); in the assay on DMS-114 it was 0.208 µM (active); with DLD-1, 0.0575 µM (active); in the assay on M19-MEL, 2.42 µM (inactive); in the assay with HOP-18, 0.0592 µM (active). Besides, in the assay with KM-20L2, the GI50 was 0.229 µM (active).

On to `COc1ccc2[nH]c3c(C)c4c(c(C)c3c2c1)CN(C)C=C4`, for which the GI50 in the assay with SNB-78 was 0.432 µM (active); in the assay on XF498, 1.07 µM (active); with DMS-114 it was 0.398 µM (active); with DLD-1 it was 1.92 µM (inactive); in the assay with LXFL 529, 0.218 µM (active); in the assay on M19-MEL it was 1.02 µM (active). Also, the GI50 is 7.38 µM (inactive) with HOP-18 and 2.75 µM (inactive) in the assay with KM-20L2.

Regarding `CC[C@@]1(O)C(=O)OCc2c1cc1n(c2=O)Cc2cc3c(CN(C)C)c(O)ccc3nc2-1` [TOPOTECAN HYDROCHLORIDE], the GI50 in the assay with RXF 631 was 0.375 µM (active); with SNB-78 it was 4.71 µM (inactive); in the assay with XF498, 0.0387 µM (active); in the assay on DMS-114 it was 0.0187 µM (active); in the assay on LXFL 529 it was 2.29 µM (inactive); in the assay on M19-MEL, 0.0649 µM (active). The GI50 with HOP-18 is 0.254 µM (active); with KM-20L2, 0.146 µM (active).
